# Data: PubChem BioAssay (NCI)
#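 Briefly, cells in 96-well plates were exposed to five compound concentrations for 48 h, and endpoints were estimated by linear interpolation. The concentration for 50% growth inhibition is given as GI50. TGI is the concentration that stops growth completely.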
# Columns and labels:
# Test in all cases: DTP human tumour cell line panel, 48 h
# MCF7 breast = test system: MCF7 breast
# SR leukemia = test system: SR leukemia
# COLO 205 colon = test system: COLO 205 colon
# NCI-H226 lung = test system: NCI-H226 lung
# SK-MEL-28 melanoma = test system: SK-MEL-28 melanoma
# HCT-15 colon = test system: HCT-15 colon
# OVCAR-4 ovarian = test system: OVCAR-4 ovarian
# HCC-2998 colon = test system: HCC-2998 colon
# HL-60(TB) leukemia = test system: HL-60(TB) leukemia
# U251 CNS = test system: U251 CNS
SMILES,GI50 (MCF7 breast),TGI (MCF7 breast),GI50 (SR leukemia),TGI (SR leukemia),GI50 (COLO 205 colon),TGI (COLO 205 colon),GI50 (NCI-H226 lung),TGI (NCI-H226 lung),GI50 (SK-MEL-28 melanoma),TGI (SK-MEL-28 melanoma),GI50 (HCT-15 colon),TGI (HCT-15 colon),GI50 (OVCAR-4 ovarian),TGI (OVCAR-4 ovarian),GI50 (HCC-2998 colon),TGI (HCC-2998 colon),GI50 (HL-60(TB) leukemia),TGI (HL-60(TB) leukemia),GI50 (U251 CNS),TGI (U251 CNS)
Cc1cc2c(-c3nc4ccccn4c3NC34CC5CC(CC(C5)C3)C4)c(O)c(O)cc2c(O)c1-c1c(C)cc2c(-c3nc4ccccn4c3NC34CC5CC(CC(C5)C3)C4)c(O)c(O)cc2c1O,0.175 µM,4.28 µM,0.854 µM,4.86 µM,0.626 µM,4.77 µM,0.929 µM,5.98 µM,0.459 µM,4.69 µM,0.466 µM,> 25 µM,0.728 µM,> 25 µM,1.13 µM,> 25 µM,0.789 µM,11.5 µM,0.106 µM,3.3 µM
NC1(C(=O)O)CSSC1,3.65 µM,23.9 µM,17.8 µM,> 100 µM,11.8 µM,27.1 µM,2.7 µM,8.82 µM,3.14 µM,10.7 µM,3.88 µM,84.7 µM,5.44 µM,46.5 µM,16.1 µM,77.5 µM,2.82 µM,11.9 µM,3.58 µM,22.6 µM
COc1ccc(-c2nn3ncccc3c2-c2ccnc(Nc3cccc(C(F)(F)F)c3)n2)cc1,7.42 µM,> 25 µM,13.5 µM,> 25 µM,17 µM,> 25 µM,9.16 µM,> 25 µM,16.7 µM,> 25 µM,7.97 µM,> 25 µM,8.54 µM,> 25 µM,5.33 µM,18.6 µM,8.74 µM,> 25 µM,11.6 µM,> 25 µM
CCOC(=O)C(=Cc1c(-c2ccccc2)[nH]c2ccccc12)C(=O)OCC,4.49 µM,18 µM,2.09 µM,9.43 µM,4.81 µM,16.3 µM,11.3 µM,34.7 µM,7.4 µM,21.6 µM,4.07 µM,38.4 µM,5.49 µM,> 76.5 µM,10.1 µM,22.6 µM,4.19 µM,35.5 µM,4.91 µM,35.6 µM
COc1ccccc1-c1nccc(COc2ccccc2C[C@@H](Oc2ncnc3sc(-c4ccc(F)cc4)c(-c4ccc(OCCN5CCN(C)CC5)c(Cl)c4C)c23)C(=O)O)n1,0.0786 µM,1.95 µM,0.034 µM,0.714 µM,1.86 µM,4.33 µM,3 µM,10.9 µM,1.76 µM,3.36 µM,5.82 µM,16.4 µM,3.55 µM,14.6 µM,1.31 µM,2.78 µM,0.0205 µM,0.0524 µM,1.88 µM,4.15 µM
COc1ccc(-c2cn(-c3cc(OC)c(OC)c(OC)c3)c(=O)n2-c2ccccc2)cc1,86 µM,> 100 µM,50.1 µM,> 100 µM,> 100 µM,> 100 µM,> 100 µM,> 100 µM,> 100 µM,> 100 µM,52.6 µM,> 100 µM,51.7 µM,> 100 µM,> 100 µM,> 100 µM,28.1 µM,> 100 µM,> 100 µM,> 100 µM
Cc1cc(Nc2cc(N3CCN(C)CC3)nc(C#Cc3ccccc3)n2)n[nH]1,2.31 µM,13.1 µM,3.47 µM,20.4 µM,1.69 µM,4.62 µM,2.17 µM,14.3 µM,5.05 µM,18.3 µM,2.23 µM,15.5 µM,1.7 µM,13.3 µM,2.71 µM,13.1 µM,2.52 µM,14.8 µM,3.52 µM,16.9 µM
Cc1cc(C(=O)Nc2cc(Nc3ncccc3-c3ncnc4nc[nH]c34)ccc2F)cc(C(C)(C)C#N)c1,5.07 µM,> 100 µM,1.99 µM,45.3 µM,0.0526 µM,> 100 µM,0.527 µM,> 100 µM,0.0402 µM,> 100 µM,2.97 µM,> 100 µM,5.33 µM,> 100 µM,0.415 µM,> 78.9 µM,0.167 µM,> 100 µM,3.74 µM,> 100 µM
NC(=O)c1c(NC(=O)c2cccc(C(F)(F)F)c2)sc2c1CCC(=O)C2,0.203 µM,> 100 µM,0.424 µM,> 100 µM,0.437 µM,1.8 µM,5.37 µM,> 100 µM,1 µM,15.2 µM,0.321 µM,1.82 µM,0.292 µM,1.25 µM,2.59 µM,> 76.9 µM,0.442 µM,6.2 µM,0.307 µM,16.6 µM
